The record followed here is US20070203194A1, “Ion channel modulators” (SCION PHARMACEUTICALS, INC., priority 2004, published 2007).

SMILES strings stand for the structures.

The assay deals with calcium channel (e.g., L-type, N-type, etc.) current. As to the kind of experiment: HEK assay (whole-cell patch clamp of calcium channel currents in transiently transfected HEK-293T/17 cells). The following applies: whole-cell voltage clamp, holding potential −100 mV. The format is cell-based. How it is done:
HEK-293T/17 cells are transiently transfected in a similar manner as described in FuGENE 6 Package Insert Version 7, April 2002, Roche Applied Science, Indianapolis, Ind. The cells are plated at 2.5×10^5 cells in 2 mL in a 6-well plate in incubator for one night and achieve a 30-40% confluence. In a small sterile tube, add sufficient serum-free medium as diluent for FuGENE Transfection Reagent (Roche Applied Science, Indianapolis, Ind.), to a total volume of 100 μL. Add 3 μL of FuGENE 6 Reagent directly into this medium. The mixture is tapped gently to mix. 2 μg of DNA solution (0.8-2.0 μg/μL) is added to the prediluted FuGENE 6 Reagent from above. The DNA/Fugene 6 mixture is gently pipetted to mix the contents and incubated for about 15 minutes at room temperature. The complex mixture is then added to the HEK-293T/17 cells, distributing it around the well, and swirled to ensure even dispersal. The cells are returned to the incubator for 24 hrs. The transfected cells are then replated at density 2.5×10^5 in a 35 mm dish with 5 glass coverslips and grow in low serum (1%) media for 24 hrs. Coverslips with isolated cells are then transferred into chamber and calcium channel (e.g., L-type, N-type, etc.) current or other currents for counter screening are recorded from the transiently transfected HEK-293T/17 cells.
The whole-cell voltage clamp configuration of the patch clamp technique is employed to evaluate voltage-dependent calcium currents essentially as described by Thompson and Wong (1991) J. Physiol., 439: 671-689. To record calcium channel (e.g., L-type, N-type, etc.) currents for evaluation of inhibitory potency of compounds (steady-state concentration-response analysis), five pulses of 20-30 ms voltage steps to about +10 mV (the peak of the current voltage relationship) are delivered at five Hz every 30 second from a holding potential at −100 mV. Compound evaluations were carried out essentially as described by Sah D W and Bean B P (1994) Mol Pharmacol. 45(1):84-92. Table 3 contains IC50's for representative compounds.
Background: Patch clamp records ionic current or voltage across a cell membrane.
On to `COc1ccc(C(=O)CSc2nnc(CNc3ccc(F)cc3)n2-c2ccc(C)cc2)cc1` [Compound 5], for which the IC50 (as a rule, the concentration needed to halve the response being measured) is 378 nM.
Then `COc1ccccc1-c1nnc(SCC(=O)Nc2ccccn2)n1-c1ccc(C)cc1` [Compound 27], with 695 nM.
Turning to `COc1ccc(C(=O)CSc2nnc(-c3ccccc3OC)n2-c2ccc(C)cc2)cc1` [Compound 28], the IC50 came to 572 nM.
